Measured values from patent publication US20140335172A1, “OPHTHALMOLOGICAL RINSING AGENT AND METHODS THEREFOF” (priority 2013, published 2014).
Read-outs that look alike come from different tables or passages of the source. Each block holds one compound with its values, some of them ahead of it.

What was measured:
[1] = cited from earlier work; for Specific Gravity, at 25° C.: silicone oil grade given by kinematic viscosity, cSt
[2] = cited from earlier work
[3] = cited from earlier work; remark: listed apart in the source
[4] = Relative efficacy ranking of oil solvents; settings: relative rank, 1 = most efficient
[5] = Relative volatility ranking of oil solvents; format: physicochemical; settings: relative rank, 1 = most volatile
[6] = cited from earlier work; for Kinematic Viscosity (Sticky**): Table 2
[7] = cited from earlier work; remark: listed apart in the source
[8] = Relative cell toxicity ranking of oil solvents; format: cell-based; design: key: 1 = most efficient/toxic/proliferative/volatile; settings: relative rank, 1 = most toxic
[9] = Relative cell proliferation ranking of oil solvents; format: cell-based; settings: relative rank, 1 = most proliferative
[10] = test system: rMC-1 cells; experiment: MTS cell viability, rMC-1, 1 hr incubation; format: cell-based; settings: rMC-1 Müller cells, n=3
Text: The innermost cell layer of the retina is called the retinal ganglion cell layer. It consists mainly of retinal ganglion cells, with some Müller cells and also some blood capillaries. This cell layer is located closest to the vitreous anatomically and thus is almost in direct contact with the rinsing agent in this study. Therefore, a retinal ganglion cell line (RGC-5) and a rat Müller cell line were used in this in-vitro cell culture study to evaluate the biocompatibility of the rinsing agent in accordance with at least one embodiment of this application.

[11] = test system: RGC-5; settings: RGC-5, 30 minutes, n=3
Procedure: In the study, CellTiter 96® AQueous non-radioactive cell proliferation assay (MTS) and Cytotoxicity Detection Kit (LDH assay) were used to test for the cell viability and cell death of the RGC-5 and rMC-1 cells after incubation with the rinsing agent (FIG. 17). The major component of the rinsing agent is octamethyltrisiloxane (1.0 cSt Silicone Oil [SO]) with hydrophobic surfactant DC749 (Dow Corning). Rinsing agents with different concentration of DC749 (0%, 5%, 10% in vol.) were included. The incubation time was designed as 1 hr because the proposed use of the rinsing agent would not be longer than 15 mins in-vivo and therefore a 1 hr study would be more than sufficient in deciding the effect of the proposed rinsing agent on the cells in the eye cavity. Hank's Balanced salt solution (HBSS) was used as the experimental control. Two liquids, perfluorodecalin (PFD) and F6H8, were also included in this study. PFD is a widely accepted short-term used intraoperative adjunct for flattening the folded retina during retinal surgery. F6H8 is a key component of Heavy Silicone Oil (HSO), which has been used as a long-term intraocular tamponade.
In a study similar to 6.4 above, the cell viability and the percentage cell death of RGC-5 were investigated in a 30-minute experiment.

[12] = at 25 ° C., Table 4 surfactants
[13] = silicone oil grade given by kinematic viscosity, cSt

SMILES: C[Si]1(C)O[Si](C)(C)O[Si](C)(C)O[Si](C)(C)O[Si](C)(C)O1 [Decamethylcyclopentasiloxane]
Density (g/cm^3) at 25° C. [1, 12]: 0.954 g/mL
Henry's Law Constant, Pa m^3/mol at 25° C. [2]: 3,342,000 Pa m^3/mol
Vapor Pressure, Pa at 25° C. [3]: 33.2 Pa

SMILES: C[Si]1(C)O[Si](C)(C)O[Si](C)(C)O[Si](C)(C)O[Si](C)(C)O[Si](C)(C)O1 [Dodecamethylcyclobexasiloxane]
Density (g/cm^3) at 25° C. [1, 12]: 0.963 g/mL
Henry's Law Constant, Pa m^3/mol at 25° C. [2]: 14,667 Pa m^3/mol
Vapor Pressure, Pa at 25° C. [3]: 4.6 Pa

Volatility [5]: 2
SMILES: CCCCCC(F)(F)C(F)(F)C(F)(F)C(F)(F)F [F4H5]
Efficacy [4]: 2
Density (g/cm^3) at 25° C. ([1]; at 25° C., Table 3): 1.284 g/mL
Kinematic Viscosity (Sticky**) [6]: 1.05 cSt
Dynamic Viscosity (mPa · s) at 25° C. [6]: 1.05 mPa · s
Surface Tension (mN/m) ([7]; Table 3): 17.43 mN/m
Vapor Pressure (Torr) ([3]; 37° C.): 25.1 (37° C.) Torr

SMILES: CCCCCCC(F)(F)C(F)(F)C(F)(F)C(F)(F)C(F)(F)C(F)(F)F [F6H6]
Density (g/cm^3) at 25° C. ([1]; at 25° C., Table 3): 1.386 g/mL
Dynamic Viscosity (mPa · s) at 25° C. [6]: 2.38 mPa · s
Surface Tension (mN/m) ([7]; Table 3): 20.0 mN/m
Vapor Pressure (Torr) ([3]; 25° C.): <1 (25° C.) Torr

SMILES: CCCCCCCCC(F)(F)C(F)(F)C(F)(F)C(F)(F)C(F)(F)C(F)(F)F [F6H8]
Efficacy [4]: 3
Volatility [5]: 3
Cell toxicity [8]: 2
Cell proliferation [9]: 2
cell viability relative to HBSS, MTS assay [10]: significant decrease in cell viability
Density (g/cm^3) at 25° C. ([1]; at 25° C., Table 3): 1.331 g/mL
Kinematic Viscosity (Sticky**) [6]: 3.44 cSt
Dynamic Viscosity (mPa · s) at 25° C. [6]: 3.44 mPa · s
Surface Tension (mN/m) ([7]; Table 3): 19.65 mN/m
Vapor Pressure (Torr) ([3]; 25° C.): <1 (25° C.) Torr

SMILES: CCCCCCCCCCCCC(F)(F)C(F)(F)C(F)(F)C(F)(F)C(F)(F)C(F)(F)F [F6H12]
Density (g/cm^3) at 25° C. ([1]; at 25° C., Table 3): 1.25 g/mL
Dynamic Viscosity (mPa · s) at 25° C. [6]: 6.99 mPa · s
Surface Tension (mN/m) ([7]; Table 3): 21.1 mN/m

SMILES: O [H2O]
Density (g/cm^3) at 25° C. ([1]; at 25° C., Table 3): 0.970 g/mL
Dynamic Viscosity (mPa · s) at 25° C. [6]: 0.89 mPa · s
Surface Tension (mN/m) ([7]; Table 3): 72 mN/m
Vapor Pressure (Torr) ([3]; 37° C.): 46.9 (37° C.) Torr

SMILES: C[Si](C)(C)O[Si](C)(C)C [Hexamethyldisiloxane]
cell viability relative to HBSS, MTS assay ([11]; listed as 0.65 mPa·s SO): significant decrease of cell viability
cell viability relative to HBSS, MTS assay ([11]; listed as LMW-SO 0.65 mPa·s): reducing the metabolism
Density ([1]; 20° C., Table 3): 0.764 g/mL
Specific Gravity, at 25° C. ([1]; at 25° C.): 0.760
Dynamic Viscosity (mPa · s) at 25° C. [6]: 0.65 mPa · s
Surface Tension (mN/m) ([7]; Table 3): 15.9 mN/m
Surface Tension (mN/m) [7, 13]: 15.9 mN/m
Vapor Pressure (Torr) ([3]; 37° C.): 42.2 (37° C.) Torr

SMILES: C[Si]1(C)O[Si](C)(C)O[Si](C)(C)O[Si](C)(C)O1 [Octamethylcyclotetrasiloxane]
Density (g/cm^3) at 25° C. [1, 12]: 0.95 g/mL
Henry's Law Constant, Pa m^3/mol at 25° C. [2]: 1,214,000 Pa m^3/mol
Vapor Pressure, Pa at 25° C. [3]: 132 Pa

SMILES: C[Si](C)(C)O[Si](C)(C)O[Si](C)(C)C [Octamethyltrisiloxane]
Density (g/cm^3) at 25° C. ([1]; at 25° C., Table 3): 0.818 g/mL
Specific Gravity, at 25° C. ([1]; at 25° C.): 0.816
Dynamic Viscosity (mPa · s) at 25° C. [6]: 1.0 mPa · s
Surface Tension (mN/m) ([7]; Table 3): 17.4 mN/m
Surface Tension (mN/m) [7, 13]: 17.4 mN/m
Vapor Pressure (Torr) ([3]; 25° C.): 4 (25° C.) Torr

Volatility [5]: 4
SMILES: FC(F)(F)C(F)(F)C(F)(F)C(F)(F)C(F)(F)C(F)(F)C(F)(F)C(F)(F)Br [PFOB]
Efficacy [4]: 3
Cell toxicity [8]: 1
Cell proliferation [9]: 3
Density (g/cm^3) at 25° C. ([1]; at 25° C., Table 3): 1.930 g/mL
Kinematic Viscosity (Sticky**) [6]: 1.93 cSt
Dynamic Viscosity (mPa · s) at 25° C. [6]: 1.93 mPa · s
Surface Tension (mN/m) ([7]; Table 3): 18 mN/m
Vapor Pressure (Torr) ([3]; 37° C.): 10.5 (37° C.) Torr
